Earlier results on one compound are cited in patent US20110189710A1, “TREATMENT OF POMPE DISEASE WITH […] PHARMACOLOGICAL CHAPERONES AND MONITORING TREATMENT USING SURROGATE MARkERS” (AMICUS THERAPEUTICS, INC., priority 2008, published 2011).

The target of data set [1] is T1, human mutant α-Gal A (R301Q) (Homo sapiens, UniProt P06280, R301Q).
T1 sequence (P06280 32-429 R301Q): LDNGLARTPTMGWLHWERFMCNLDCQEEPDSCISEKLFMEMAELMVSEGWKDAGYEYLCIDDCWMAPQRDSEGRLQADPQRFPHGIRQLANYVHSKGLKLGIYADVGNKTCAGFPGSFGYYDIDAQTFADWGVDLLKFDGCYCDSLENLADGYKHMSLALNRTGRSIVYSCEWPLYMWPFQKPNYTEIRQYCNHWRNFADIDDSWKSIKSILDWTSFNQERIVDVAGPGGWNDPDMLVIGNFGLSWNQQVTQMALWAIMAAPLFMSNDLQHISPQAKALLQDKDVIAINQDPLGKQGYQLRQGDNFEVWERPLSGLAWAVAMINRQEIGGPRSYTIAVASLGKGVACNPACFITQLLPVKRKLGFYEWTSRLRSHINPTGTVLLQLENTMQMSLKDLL
The note with it: neutral pH; cited from earlier work.

In data set [2] the test system is α-Gal A (R301Q or Q279E) in Fabry patient lymphoblasts. The note with it: lymphoblasts from Fabry patients with R301Q or Q279E mutations; cited from earlier work.
The next data set deals with T2, mutant (R301Q) α-Gal A (Homo sapiens, UniProt P06280, R301Q).
T2 construct: host or cells: transgenic mice
T2 sequence (P06280 32-429 R301Q): T1 sequence (P06280 32-429 R301Q)
The note with it: oral administration; transgenic mice overexpressing mutant (R301Q) α-Gal A; cited from earlier work.

`OC[C@H]1NC[C@H](O)[C@@H](O)[C@H]1O` [DGJ, 1-deoxygalactonojirimycin]: the “In vitro stability of mutant enzyme” value in data set [1] is “effectively increased in vitro stability”. The “Mutant enzyme activity in lymphoblasts” value in data set [2] is “enhanced the mutant enzyme activity”. For the same compound, the “Enzyme activity in major organs” value on mutant (R301Q) α-Gal A was “substantially elevated the enzyme activity”.
